Test system: Escherichia coli (ATCC25922 strain)
Experiment: antimicrobial susceptibility test by an ATP method (ATP luminescence), E. coli
Type: cell-based
Settings: for RLU value as compared with that at ampicillin 0 μg/mL: plateau after 2 hours
Source text: In the Example, the amount of luminescence is expressed by the integration of the 60-sec photon count, and the unit is the amount of luminescence (a.u.). Since the amount of luminescence and the amount of ATP are in a proportional relationship, the increase in the amount of luminescence and the increase in the amount of ATP are to be expressed with the same implications.
Benzalkonium chloride was used as an extraction liquid, and Lucifer HS set (Kikkoman) was used as a luminescence reagent.
First, H. influenzae was cultured one night on a chocolate agar medium under a carbon dioxide gas atmosphere of 5 to 10%, and on the next day, the colony was suspended in a Mueller-Hinton (hereinafter referred to as MH) medium to produce a bacterial suspension that was prepared to 0.5 McFarland. Next, in a plate in which 50 μL each of an MH medium with the antibody of the two-fold concentration of the final concentration was previously dispensed, 50 μL each of a bacterial suspension diluted 500-fold with the MH medium was dispensed to provide an AST panel.
The first plate 21 and the second plate 22 were joined via the joint portion 23. The temperature of the ATP examination culture plate 12 was kept at 37° C. by the heater 11 and after a certain period of time, 10 μL of the bacterial culture solution of H. influenzae was dispensed from the culture vessel in the first plate 21 into the reaction vessel in the second plate 22 in which the gas atmosphere was previously prepared to 5 to 10% carbon dioxide. Subsequently, 10 μL of the extraction liquid was dispensed from the extraction liquid holding part 43 into the reaction vessel, and then 50 μL of the luminescence reagent was dispensed from the luminescence reagent holding part 46 into the reaction vessel.
After dispensing the luminescence reagent, the amount of luminescence in the reaction vessel was detected by the optical detector 13. In the optical detector 13, photo-counting was performed for 1 minute, and the detected amount of luminescence RLU (relative light unit) was used as a measure of the amount of ATP.
Example 2 was conducted in the same manner as in Example 1, except that Escherichia coli (ATCC25922 strain, hereinunder, E. coli) was used as bacterial cells, ampicillin was used as an antibody, and the gas atmosphere in the culture solution holding part 47 and the reaction vessel 44 of the ATP examination culture plate 21 was an air atmosphere. The antibody (ampicillin) concentration was 0, 2, 4, and 8 μg/mL. […] When the ampicillin concentration was 0 μg/mL, RLU increased in an exponential manner from the start of the culture until 4 hours, and thereafter ran at a constant value. […] On the other hand, when the ampicillin concentration was 4 μg/mL and 8 μg/mL, RLU increased from the start of the culture until 2 hours and thereafter ran at a constant value. The RLU value was as low as about 1/20 as compared with that at an ampicillin concentration of 0 μg/mL, and it can be seen that the growth of E. coli was suppressed by the action of ampicillin.

## CC1(C)S[C@@H]2[C@H](NC(=O)[C@H](N)c3ccccc3)C(=O)N2[C@H]1C(=O)O [ampicillin]
Ampicillin 2 μg/mL
  susceptibility determination of E. coli: resistant
Ampicillin 2 μg/mL, air atmosphere, FIG. 10, 0 μg/mL: exponential increase until 4 hours, then constant
  RLU time course compared with ampicillin 0 μg/mL: a similar trend was shown
Ampicillin 4 μg/mL
  susceptibility determination of E. coli: has sensitivity
Ampicillin 4 μg/mL, air atmosphere, FIG. 10
  RLU value as compared with that at ampicillin 0 μg/mL: about 1/20
Ampicillin 8 μg/mL
  susceptibility determination of E. coli: has sensitivity
Ampicillin 8 μg/mL, air atmosphere, FIG. 10
  RLU value as compared with that at ampicillin 0 μg/mL: about 1/20
Tested 0, 2, 4 and 8 μg/mL, ATP luminescence
  concentration at which E. coli has sensitivity: ≥ 4 µg/mL

From US10323266B2, “Antimicrobial susceptibility testing device, antimicrobial susceptibility testing kit, and antimicrobial susceptibility testing method” (Hitachi, Ltd., priority 2015, dated 2019)
